How the values were obtained:
human neutrophils = experiment: Human neutrophil superoxide generation (FMLP-stimulated, cytochrome C reduction); assay type: cell-based; conditions: for IC50: read-out: FMLP Induced Superoxide Generation, Inhibition IC50
Procedure: The compounds of the invention are evaluated with respect to superoxide modulating activity according to the following assay procedure:
Human neutrophil superoxide generation: Superoxide generation by formyl-methionyl-leucyl-phenylalanine (FMLP)-stimulated neutrophils was quantitated by the reduction of cytochrome C (Badwey, J. A., Curnutte, J. T. and Karnovsky, M. L., cis-Polyunsaturated fatty acids induce high levels of superoxide production by human neutrophils. J. Biol. Chem. 256: 12640-12643, 1981.) To 5 million neutrophils in 2.85 ml of Krebs-Ringer phosphate buffer, pH 7.2, 50 ul of inhibitor (in 10% DMSO/buffer), and 50 ul ferricytochrome C (5 mM, stock) were added and preincubated for 3 minutes at 37° C. Absorption measurements at 550 nm were recorded at start of preincubation. Fifty ul FMLP (6 uM, stock) was added to initiate reaction. A plateau was reached within 3 minutes and this reading minus the initial reading (before addition of FMLP) was used to calculate nanomoles of superoxide generated based on a molar extinction coefficient of 2.1×10^4 cm^-1 mole^-1.
Isolation of human neutrophils: Human neutrophils were isolated from freshly drawn blood of healthy donors. Two ml of 5% dextran (MW 200,000-300,000) in saline was added to 10 ml aliquots of blood, mixed and placed upright for 45 min. at 37° C. Approx. 8-10 ml of the plasma-white cell suspension from the dextran sedimentation was layered on 3 ml of Ficol-paque in a 15 ml tube and centrifuged at 400 g for 30 min. The supernate, containing plasma and platelets, was discarded by aspiration, and the pellet, containing predominantly neutrophils, was resuspended in 1 ml saline. The suspension was transferred to a clean tube, and pooled with other aliquots of blood treated similarly. The pooled suspension was centrifuged at 350 g for 5 min. and supernate discarded. The pellet was resuspended in 5 ml of 0.05% NaCl with a plastic Pasteur pipette for 25 seconds to lyse contaminating red cells, then 5 ml of 1.75% NaCl added to regain isotonicity. The red cell lysing procedure was repeated, the cells suspended in appropriate buffer (depending on assay) and counted.

5-lipoxygenase = biological target: T1, 5-lipoxygenase (Rattus norvegicus, UniProt P12527); experiment: Inhibition of 5-lipoxygenase, in vitro (5-HETE synthesis, RBL-1 100,000 x g supernatant); assay type: biochemical; conditions: for activation at 100 µM / activation at 10 µM: stimulation, read-out: 5-Lipoxygenase, Stimulated %
T1 construct: The 100,000 x g supernatant fraction of Rat Basophilic Leukemia Cell Homogenate (RBL-1); endogenous in cells; host or cells: RBL-1 (rat basophilic leukemia) cells, 100,000 x g supernatant of homogenate
T1 sequence (P12527 1-673): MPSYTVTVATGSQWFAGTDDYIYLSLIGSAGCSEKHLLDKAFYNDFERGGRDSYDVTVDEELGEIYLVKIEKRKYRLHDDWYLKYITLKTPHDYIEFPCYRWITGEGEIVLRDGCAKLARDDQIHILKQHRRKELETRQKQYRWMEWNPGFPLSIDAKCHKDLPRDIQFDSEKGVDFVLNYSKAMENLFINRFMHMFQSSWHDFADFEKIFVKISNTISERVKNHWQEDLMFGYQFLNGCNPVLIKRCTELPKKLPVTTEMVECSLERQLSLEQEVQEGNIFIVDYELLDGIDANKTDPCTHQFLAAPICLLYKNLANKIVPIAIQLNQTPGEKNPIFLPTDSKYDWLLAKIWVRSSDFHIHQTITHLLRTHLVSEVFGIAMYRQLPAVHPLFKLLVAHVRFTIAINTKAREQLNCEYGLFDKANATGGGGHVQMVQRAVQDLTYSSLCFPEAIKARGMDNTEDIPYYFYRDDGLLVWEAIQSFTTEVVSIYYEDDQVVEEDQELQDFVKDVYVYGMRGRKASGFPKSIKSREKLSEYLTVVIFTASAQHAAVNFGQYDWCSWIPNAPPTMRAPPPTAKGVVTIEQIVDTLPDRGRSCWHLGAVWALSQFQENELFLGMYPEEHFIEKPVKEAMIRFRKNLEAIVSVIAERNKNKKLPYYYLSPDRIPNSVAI
Procedure: The compounds of the invention are evaluated with respect to 5-lipoxygenaseinhibition according to the following assay procedure.
Inhibition of 5-lipoxygenase, in vitro: anti-inflammatory, anti-allergy activities.
The 100,000 x g supernatant fraction of Rat Basophilic Leukemia Cell Homogenate (RBL-1) serves as a 5-lipoxygenase enzyme source. The enzyme is incubated with [1-^14 C)-arachidonic acid and Ca++ in the presence and absence of test compound. The product of 5-lipoxygenase, 5-hydroxyeicosatetraenoic acid (5-HETE), is separated by thin-layer chromatography an measured by radioactivity. A compound inhibiting 5-HETE synthesis by 30% or more is considered active at that concentration.
For comparison the compound of Formula XX, a known 5-lipoxygenase inhibitor described in U.S. Pat. No. 4,755,524 was used. [drawing 13]

[1] = biological target: T2, Sheep Seminal Vesicle Microsome Cyclooxygenase (Ovis aries, UniProt P05979); experiment: Inhibition of Sheep Seminal Vesicle Microsome Cyclooxygenase; assay type: biochemical
T2 construct: Lyophilized ovine microsome (approx. 1 mg) suspended in 2.9 ml Tris-HCl buffer, pH 8.2, containing 0.7 mM phenol were used as source; from tissue; host or cells: sheep seminal vesicle microsomes (lyophilized)
T2 sequence (P05979 25-600): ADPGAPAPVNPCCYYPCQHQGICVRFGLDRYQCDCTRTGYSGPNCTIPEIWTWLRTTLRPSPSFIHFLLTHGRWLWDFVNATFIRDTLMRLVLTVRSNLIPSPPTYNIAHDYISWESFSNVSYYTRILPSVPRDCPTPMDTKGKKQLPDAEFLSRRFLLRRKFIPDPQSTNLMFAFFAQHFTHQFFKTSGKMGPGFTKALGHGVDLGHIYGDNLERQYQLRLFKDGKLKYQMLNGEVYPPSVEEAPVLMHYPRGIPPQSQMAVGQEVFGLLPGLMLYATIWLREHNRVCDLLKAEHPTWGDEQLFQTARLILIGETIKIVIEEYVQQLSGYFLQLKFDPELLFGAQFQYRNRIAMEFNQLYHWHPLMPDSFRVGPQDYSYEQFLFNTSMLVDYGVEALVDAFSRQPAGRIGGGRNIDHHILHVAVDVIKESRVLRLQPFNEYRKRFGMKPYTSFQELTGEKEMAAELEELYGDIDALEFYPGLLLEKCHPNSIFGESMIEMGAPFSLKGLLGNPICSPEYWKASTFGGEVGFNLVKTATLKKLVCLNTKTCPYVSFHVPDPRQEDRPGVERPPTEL
Procedure: The compounds of the present invention evaluated with respect to cyclooxygenase inhibition according to the following assay procedure. Inhibition of Sheep Seminal Vesicle Microsome Cyclooxygenase The assay was based on oxygen consumption during conversion of arachidonic acid to prostaglandin G2 catalyzed by cyclooxygenase Biochem. 11:3276-3285 (1972). Lyophilized ovine microsome (approx. 1 mg) suspended in 2.9 ml Tris-HCl buffer, pH 8.2, containing 0.7 mM phenol were used as source of arachidonate cyclooxygenase. The inhibitor, 50 μl in DMSO, was added and the mixture preincubated for 5 minutes at 37° C. Fifty μl of arachidonic acid (final conc. 50 μM) was added to start the reaction. The slopes of the initial rates of oxygen uptake, in the presence and absence of inhibitor, were compared to determine reaction inhibition. Percent inhibition was computed using the following formula: [formula]

[2] = Homo sapiens, Neutrophil, % above control, read-out: FMLP Induced Superoxide Generation, Stimulation, % > control

COC(=O)CS[C@@H]1CCCC[C@H]1Sc1cc(C(C)(C)C)cc(C(C)(C)C)c1 (relative stereo) [Example 4]
activation at 1 µM (human neutrophils; Homo sapiens, Neutrophil, 1 μM, % above control, read-out: FMLP Induced Superoxide Generation, Stimulation, % > control): 67%
activation at 10 µM (human neutrophils; [2]): 133%
activation at 100 µM (human neutrophils; Homo sapiens, Neutrophil, 100 μM, % above control, read-out: FMLP Induced Superoxide Generation, Stimulation, % > control): 167%

CC(C)(C)c1cc(S[C@@H]2CCCC[C@H]2SCC(=O)O)cc(C(C)(C)C)c1 (relative stereo) [Example 5, trans-[[2-[[3,5-bis(1,1-dimethylethyl)phenyl]thio]cyclohexyl]thio]acetic acid]
IC50 (human neutrophils; Homo sapiens, Neutrophil): 1.1 µM
IC50 (5-lipoxygenase): 100 µM

O=C(O)CS[C@@H]1CCCC[C@H]1Sc1ccccc1 (relative stereo) [Example 7]
superoxide generation (statement in words) (human neutrophils): did inhibit superoxide generation
IC50 (human neutrophils; Homo sapiens, Neutrophil): 50 µM
5-lipoxygenase inhibition (statement in words) (5-lipoxygenase): did not inhibit either 5-lipoxygenase or cyclooxygenase
activation at 100 µM (5-lipoxygenase; at 10^-4 M): 45%
activation at 10 µM (5-lipoxygenase; at 10^-5 M): 27%
cyclooxygenase inhibition (statement in words) [1]: did not inhibit either 5-lipoxygenase or cyclooxygenase
Cyclooxygenase Inhibition (in words) ([1]; at 100 μM): Inactive

CC(C)(C)c1cccc(S[C@@H]2CCCC[C@H]2SCC(=O)O)c1 (relative stereo) [Example 11]
IC50 (human neutrophils; Homo sapiens, Neutrophil): 4.8 µM
activation at 100 µM (5-lipoxygenase; at 10^-4 M): 2.5%
activation at 10 µM (5-lipoxygenase; at 10^-5 M): 3.2%
IC50 [1]: 2.9 µM

O=C(O)CS[C@@H]1CCCC[C@H]1Sc1cccc(-c2ccccc2)c1 (relative stereo) [Example 15]
IC50 (human neutrophils; Homo sapiens, Neutrophil): 2.8 µM
inhibition at 100 µM (5-lipoxygenase; at 10^-4 M, inhibition, read-out: 5-Lipoxygenase, Inhibited %): 21.3%
inhibition at 10 µM (5-lipoxygenase; at 10^-5 M, inhibition, read-out: 5-Lipoxygenase, Inhibited %): 14.9%
IC50 [1]: 64 µM

CN(CCc1ccccn1)C(=O)CS[C@@H]1CCCC[C@H]1Sc1cc(C(C)(C)C)cc(C(C)(C)C)c1 (relative stereo) [Example 16]
superoxide generation (statement in words) (human neutrophils): stimulated superoxide generation
activation at 10 µM (human neutrophils; [2]): 33%
activation at 25 µM (human neutrophils; Homo sapiens, Neutrophil, 25 μM, % above control, read-out: FMLP Induced Superoxide Generation, Stimulation, % > control): 83%
activation at 50 µM (human neutrophils; Homo sapiens, Neutrophil, 50 μM, % above control, read-out: FMLP Induced Superoxide Generation, Stimulation, % > control): 100%
5-lipoxygenase inhibition (statement in words) (5-lipoxygenase): inhibited 5-lipoxygenase
IC50 (5-lipoxygenase): 100 µM

CC(C)(C)c1cc(S[C@@H]2CCCC[C@H]2OCC(=O)O)cc(C(C)(C)C)c1 (relative stereo) [Example 17]
IC50 (human neutrophils; Homo sapiens, Neutrophil): 3.4 µM
IC50 (5-lipoxygenase): > 100 µM

C[C@H](Sc1cc(C(C)(C)C)c(O)c(C(C)(C)C)c1)[C@@H](C)OCC(=O)O (relative stereo) [Formula XX, reference compound]
superoxide generation (statement in words) (human neutrophils): inhibited both superoxide generation and 5-lipoxygenase
IC50 (human neutrophils; Homo sapiens, Neutrophil): 11 µM
5-lipoxygenase inhibition (statement in words) (5-lipoxygenase): inhibited both superoxide generation and 5-lipoxygenase

— patent US5272178A, “Compounds of cyclic phenolic thioethers which are useful in stimulating and inhibiting superoxide generation” (G. D. Searle & Co., priority 1993, dated 1993)
